The text below walks through data of article PMC7897990, “TriTOX: A novel Trichomonas vaginalis assay platform for high-throughput screening of compound libraries” (International Journal for Parasitology: Drugs and Drug …, 2021).

For this test, the system named is Trichomonas vaginalis G3 trophozoites. The following applies: for T.vaginalis_Absorbance_Rep1: replicate 1, raw absorbance; for T.vaginalis_Absorbance_Rep2: replicate 2, raw absorbance.
Where [1] appears, read: HTS, parasite screen at 1 µg/mL, replicate 1.
[2] abbreviates: HTS, parasite screen at 1 µg/mL.
[3] abbreviates: HTS, parasite screen at 1 µg/mL, replicate 2.
The mark [4] stands for this setting: HTS replicate 1, parasite screen 1 µg/mL.
Setting [5] is: HTS replicate 2, parasite screen 1 µg/mL.

Structures are written as SMILES. Where two headings read alike, the source gives them in different places.

Under setting [1], `COc1c(Cl)c(O)c(Cl)c(C)c1C(=O)O[C@H]1[C@H](O)C[C@H](O[C@H]2[C@@H](O)CC(=O)O[C@@H]2C)O[C@@H]1C` [Flambalactone] displayed a T.vaginalis_%inb_Rep1 of 13.89%. Under setting [2], this compound came in with a T.vaginalis_Absorbance_Rep1 of 0.967 and a T.vaginalis_Absorbance_Rep2 of 0.807. Besides, the T.vaginalis_%inb_Rep2 under setting [3] is 13.52%.
The matching figures for `C/C=C(/C)c1cc(O)c(C)c2c1Oc1c(C)c(O)cc(/C(C)=C\C)c1C(=O)O2` [Folipastatin]: 12.58%, 0.95, 0.855 and 14.11%.
The corresponding values for `CCC/C=C/C=C/C1C[C@@H](O)[C@@H](O)C(=O)[C@H]1C=O` (some centres unmarked) [Frequentin] are 13.62%, 0.962, 0.727 and 7.74%.
The matching figures for `COC1=C(OC)C(=O)C(C)=CC1=O` [Fumigatin methylether]: 13.18%, 0.962, 0.785 and 9.62%.
Take `COC1=C(O)c2c(O)cc(C)c3c(O)cc(O)c(c23)C1=O` [Funalenone]: the T.vaginalis_%inb_Rep1 under setting [1] was 14.50%. Also, under setting [2], the T.vaginalis_Absorbance_Rep1 turned out to be 0.988 and the T.vaginalis_Absorbance_Rep2 was determined as 0.837. Also, the T.vaginalis_%inb_Rep2 under setting [3] stood at 12.96%.
Compound `CCCCCCC(C)C/C(C)=C\C(/C=C(C)/C=C/C(O)C(C)(C)c1cc(O)c([C@@H]2O[C@H](CO)C[C@H](O)[C@H]2O)c(=O)o1)CO` (some centres unmarked) [Fusapyrone] gave a T.vaginalis_%inb_Rep1 under setting [1] of 13.39%. Further, under setting [2], the T.vaginalis_Absorbance_Rep1 was 0.966 and the T.vaginalis_Absorbance_Rep2 worked out at 0.841. This compound came in with a T.vaginalis_%inb_Rep2 under setting [3] of 13.21%.
The corresponding values for `CC(=O)OCc1c(O)c2c(c3c1OC(=O)c1c(C)cc(O)c(C=O)c1O3)C(O)OC2=O` (centres unmarked) [Galbinic acid] are 15.37%, 1.005, 0.836 and 12.89%.
In turn, `C[C@@H]1C=C2C(=O)O[C@@H]3CC[C@H](C1)[C@]23O` [Galiellalactone] came in with a T.vaginalis_%inb_Rep1 under setting [1] of 19.07%. Further, under setting [2], the T.vaginalis_Absorbance_Rep1 came out at 1.078 and the T.vaginalis_Absorbance_Rep2 was 0.724. Besides, under setting [3], the T.vaginalis_%inb_Rep2 was 5.71%.
Turning to `CCCN1C[C@H](C)[C@@H](O)[C@](C)(O)[C@@H](CC)OC(=O)[C@H](C)[C@@H](O[C@H]2C[C@@](C)(OC)[C@@H](O)[C@H](C)O2)[C@H](C)[C@@H](O[C@@H]2O[C@H](C)C[C@H](N(C)C)[C@H]2O)[C@](C)(O)C[C@H]1C` [Gamithromycin], under setting [1], the T.vaginalis_%inb_Rep1 was found to be 5.73%. Under setting [2], this compound showed a T.vaginalis_Absorbance_Rep1 of 0.815 and a T.vaginalis_Absorbance_Rep2 of 0.759. This compound also yielded a T.vaginalis_%inb_Rep2 under setting [3] of 7.95%.
The corresponding values for `C=C(NC(=O)C(=C)NC(=O)c1ccc2c(n1)-c1coc(n1)C(=C)NC(=O)C(=C)NC(=O)c1nc(oc1C)C(=C)NC(=O)C(C(C)(C)O)NC(=O)C(=C)NC(=O)c1coc(n1)/C(=C/C)NC(=O)[C@H]([C@@H](C)O)NC(=O)c1csc-2n1)C(N)=O` (some centres unmarked) [Geninthiocin] are 14.25%, 0.983, 0.83 and 12.51%.
Under setting [1], `CCc1c(O)c(C)c(C(C)CC)oc1=O` (centres unmarked) [Germicidin A] showed a T.vaginalis_%inb_Rep1 of 11.41%. Under setting [2], this compound had a T.vaginalis_Absorbance_Rep1 of 0.927 and a T.vaginalis_Absorbance_Rep2 of 0.825. For the same compound, the T.vaginalis_%inb_Rep2 under setting [3] was determined as 12.19%.
The corresponding values for `COc1cc2c(oc(=O)c3cc(C)cc(OC)c32)c2c(C3OC(C(C)O)C(O)C3O)ccc(O)c12` (centres unmarked) [Gilvocarcin M] are 10.14%, 0.902, 0.852 and 13.92%.
The matching figures for `COC1=C(OC)C(=O)C(C)C(C)C1=O` (centres unmarked) [Gliorosein]: 13.24%, 0.963, 0.874 and 15.33%.
The corresponding values for `COC1=C(OC)C(O)C(C)C(C)C1=O` (centres unmarked) [Glioroseinol] are 11.16%, 0.922, 0.665 and 1.92%.
Turning to `COc1cc(O)c2c(=O)oc3c(O)c(OC)cc(C)c3c2c1` [Graphislactone A], the T.vaginalis_%inb_Rep1 under setting [1] stood at 13.44%. Under setting [2], this compound registered a T.vaginalis_Absorbance_Rep1 of 0.967 and a T.vaginalis_Absorbance_Rep2 of 0.892. Further, the T.vaginalis_%inb_Rep2 under setting [3] came to 16.48%.
For the compound `COC(=O)C1(O)CC2OC1(C)n1c3ccccc3c3c4c(c5c6ccccc6n2c5c31)C(=O)NC4` (centres unmarked) [K252A, reference compound], under “384-well, 25 μL, 10,000 cells/mL, 48 h, biological duplicates, hit = >50% inhibition”, the “T. vaginalis HTS result in words” value is on record as “active analogues”.
`CC1=C[C@H]2C(=O)O[C@H]3C[C@@H](C/C=C(\C)C[C@@H](C)/C=C/C=C4\CO[C@H](/C1=N/O)[C@@]42O)O[C@@]1(CC[C@H](C)[C@@H](C)O1)C3` [Milbemycin A3 oxime]: the T.vaginalis_%inb_Rep1 under setting [4] was found to be 12.78%. Also, the T.vaginalis_%inb_Rep2 under setting [5] is recorded as 11.35%.
The corresponding values for `CC1=C[C@H]2C(=O)O[C@H]3C[C@@H](C/C=C(\C)C[C@@H](C)/C=C/C=C4\CO[C@H]([C@@H]1O)[C@@]42O)O[C@@]1(CC[C@H](C)[C@@H](C)O1)C3` [Milbemycin A3] are 11.05% and 8.85%.
As to `CCC1OC2(CCC1C)CC1CC(CC=C(C)CC(C)C=CC=C3COC4C(=NO)C(C)=CC(C(=O)O1)C34O)O2` (centres unmarked) [Milbemycin A4 oxime], under setting [4], the T.vaginalis_%inb_Rep1 stood at 13.39%. The same compound returned a T.vaginalis_%inb_Rep2 under setting [5] of 13.53%.
The corresponding values for `CCC1OC2(CCC1C)CC1CC(CC=C(C)CC(C)C=CC=C3COC4C(O)C(C)=CC(C(=O)O1)C34O)O2` (centres unmarked) [Milbemycin A4] are 12.17% and 12.96%.
Under setting [4], `C/C1=C\C(C)C(O)/C(C)=C/C(O[C@H]2O[C@H](CO)[C@@H](O)[C@H](O)[C@@H]2O)C(O)C(C)C(O)CC(O)/C=C\C(C)C(O)C(C)CCC(O)CC(O)C(C)C(O)C(C)C(O)CC(O)CC(O)C(C)C(C(C)CCCCCCN)OC(=O)CCCCCC(O)C(C)C(O)CC/C=C/C(C)C1O` (some centres unmarked) [Monazomycin] had a T.vaginalis_%inb_Rep1 of 9.53%. Moreover, under setting [5], the T.vaginalis_%inb_Rep2 is given as 13.73%.
The matching figures for `CC(=O)c1c(O)cc(O)cc1O` [Monoacetylphloroglucinol]: 4.36% and 14.18%.
Turning to `COC(=O)c1cc(O)cc(OC)c1C(=O)c1c(O)cc(C)cc1OC` [Monomethylsulochrin], under setting [4], the T.vaginalis_%inb_Rep1 was 8.42%. In addition, under setting [5], the T.vaginalis_%inb_Rep2 turned out to be 11.03%.
Turning to `CC1(C)CC[C@]2(C)CC[C@]3(C)C4=CC[C@H]5C(C)(C)[C@@H](O)CC[C@]5(C)[C@H]4CC[C@@]3(C)[C@@H]2C1` [Multiflorenol], under setting [4], the T.vaginalis_%inb_Rep1 was found to be 10.55%. The same compound came in with a T.vaginalis_%inb_Rep2 under setting [5] of 11.42%.
